Experimental data from patent publication US11479755B2, “T cell compositions” (2seventy bio, Inc., priority 2015, dated 2022).
Entries after “also recorded” stand apart in the source; their conditions may differ.

Columns and labels:
anti-BCMA CAR T cells [1] = test: CD62L expression on anti-BCMA CAR T cells by flow cytometry at end of culture; format: cell-based, human
Protocol: CAR T cells were cultured with either MK-2206 or triciribine phosphate-TCN (AKT inhibitors) or ZSTK474 (PI3K inhibitor). CAR T cells specific for B cell maturation antigen (BCMA) were used in these set of experiments. CAR T cell cultures were performed using a system directly scalable to large clinical manufacturing processes. […] 2×10^8 transducing units of lentivirus encoding anti-BCMA CARs were added one day after culture initiation. […] At the end of culture, the anti-BCMA CAR T cells were interrogated for phenotype.
(§1) Expression of CD62L on anti-BCMA CAR T cells was assessed by flow cytometry at the end of culture. Anti-BCMA CAR T cells were specifically identified using recombinant human BCMA-IgG Fc conjugated to PE. CD62L expression was determined with a co-stain using an antibody specific to CD62L. […] (FIG. 3).
Anti-BCMA CAR T cells cultures were prepared using a system directly scalable to large clinical manufacturing processes. […] 2×10^8 transducing units of lentivirus encoding anti-BCMA CARs were added one day after culture initiation. […] At the end of culture, the anti-BCMA CAR T cells were interrogated for phenotype.
as §1, with “7).” for “3).”

anti-BCMA CAR T cells [2] = test: Cell surface expression of anti-BCMA CAR by flow cytometry; format: cell-based, human; details: end of culture, four normal donors
Protocol: (§2) 1×10^8 transducing units of lentivirus encoding anti-BCMA CARs were added one day after culture initiation and at the end of culture, the anti-BCMA CAR T cells were interrogated for genomic integration and cell surface expression of the anti-BCMA CAR.
Expression of the anti-BCMA CAR on the surface of T cells was assessed by flow cytometry at the end of culture. Anti-BCMA CAR T cells were specifically identified using recombinant human BCMA-IgG Fc conjugated to PE.

T cells [3] = test: CD62L expression on T cells cultured with MK-2206; format: cell-based, human
Protocol: Peripheral blood mononuclear cells (PBMC) are a heterogeneous cellular population containing T cells. PBMC were harvested from normal donors and labeled with a fluorescent dye (CellTrace® Violet, Molecular Probes), whose intensity is progressively diluted by a factor of two with each cell division. The labeled PBMCs were used as a source of cells for T cell expansion. […] The impact of MK-2206 on cell division was assayed by evaluating CellTrace Violet dilution with flow cytometry after the addition of 0.025 μM, 0.074 μM, 0.222 μM, 0.67 μM, or 2.0 μM, MK-2206 to the T cultures at day 0. […] A pairwise t test was performed on all day seven cultures; (each concentration of MK-2206 was compared to 0 μM MK-2206: the cultures were not statistically different at the p≤0.05 level). The purpose of this experiment was to determine the effect of Akt inhibitors on T cell markers for T cell potency. The impact of MK-2206 (Selleckchem) on T cell potency was assessed by measuring CD62L expression in the T cell cultures manufactured in Example 1. Mouse models have shown that CD62L expression identifies potent T cells; T cells with greater anti-tumor efficacy after adoptive transfer. […] FIG. 2. A pairwise T test was performed on all day seven cultures (each concentration of MK-2206 was compared to 0 μM MK-2206: *p<0.05, **p<0.01).

T cells [4] = test: T cell proliferation by CellTrace Violet dilution (flow cytometry); format: cell-based, human
Protocol: Peripheral blood mononuclear cells (PBMC) are a heterogeneous cellular population containing T cells. PBMC were harvested from normal donors and labeled with a fluorescent dye (CellTrace® Violet, Molecular Probes), whose intensity is progressively diluted by a factor of two with each cell division. The labeled PBMCs were used as a source of cells for T cell expansion. […] The impact of MK-2206 on cell division was assayed by evaluating CellTrace Violet dilution with flow cytometry after the addition of 0.025 μM, 0.074 μM, 0.222 μM, 0.67 μM, or 2.0 μM, MK-2206 to the T cultures at day 0. […] A pairwise t test was performed on all day seven cultures; (each concentration of MK-2206 was compared to 0 μM MK-2206: the cultures were not statistically different at the p≤0.05 level).

anti-BCMA CAR T cells [5] = test: Integrated copies of anti-BCMA CAR (vector copy number) by quantitative PCR; format: cell-based, human; details: end of culture, four normal donors, 1×10^8 transducing units lentivirus
Protocol: as §2
Integrated copies of the anti-BCMA CAR were assessed by quantitative PCR at the end of culture using primers that detect the vector or the genomic control RNAseP.

anti-BCMA CAR T cells [6] = test: CD127, CD197, CD38 co-expression by fluorescence-based flow cytometry; format: cell-based; details: seven donors, ten days of culture
From the text: The mass cytometry data in Example 8 identified a set of cell surface markers that further characterizes the phenotype of CART cells cultured in the presence of ZSTK474. […] CAR T cells from seven donors cultured in the presence or absence of ZSTK474 were stained with fluorescently labeled antibodies to CD127, CD197, and CD38. […] FIG. 9.

anti-BCMA CAR T cells [7] = test: CD8 expression by flow cytometry; format: cell-based, human; details: seven normal donors, IL-2 and ZSTK474
Protocol: CD8 expression was determined using a fluorescently-labeled anti-CD8 antibody and flow cytometry. […] FIG. 10.

anti-BCMA CAR T cells [8] = test: Tonic (antigen-independent) IFN-γ release by ELISA; format: cell-based; details: 14 donors; after ten days of culture; IFN-γ levels below 200 pg/mL represent no tonic activity
Protocol: Tonic activity of CAR T cells in the absence of antigen has been associated with reduced biological activity. […] Anti-BCMA CAR T cells cultures were prepared using a system directly scalable to large clinical manufacturing processes. […] 2×10^8 transducing units of lentivirus encoding anti-BCMA CARs were added one day after culture initiation. […] At the end of manufacture, an equivalent number of anti-BCMA CAR T cells were re-cultured for 24 hours in media alone. The amount of IFN-γ released in 24 hours was quantified by ELISA. In this assay IFN-γ levels below 200 pg/mL represent no tonic activity.

anti-BCMA CAR T cells [9] = test: Cell surface marker expression by multiparameter mass cytometry (CyTOF); format: cell-based
Protocol: Expression analysis of 29 additional cell surface markers on anti-BCMA CAR T cells cultured with IL-2 and ZSTK474 was performed using multiparameter mass cytometry (CyTOF) and compared with CAR T cells cultured in IL-2 alone.

[10] = Example 7: ten days of culture with IL-2 and optimized dose of inhibitor, four normal donors
[11] = Example 3: ten days of culture with IL-2 and optimized dose of inhibitor, three normal donors

Row | SMILES | CD62L expression on anti-BCMA CAR T cells vs IL-2 alone (anti-BCMA CAR T cells [1]; [10]) | anti-BCMA CAR expression on the surface of T cells vs IL-2 alone (anti-BCMA CAR T cells [2]) | CD62L expression on T cells vs no treatment control (T cells [3]; seven days of culture, all concentrations of MK-2206 tested, in presence of IL-2) | CD62L expression on T cells vs no treatment control (T cells [3]; three days of culture with MK-2206) | T cell division / proliferation vs vehicle or non-treated controls (T cells [4]; seven days of culture, 0.025-2.0 μM MK-2206, IL-2, pairwise t test p≤0.05) | T cell division / proliferation vs no treatment control (T cells [4]; three days of culture, 0.025-2.0 μM MK-2206, IL-2, CD3 and CD28 antibodies) | integrated copies of the anti-BCMA CAR vs IL-2 only (anti-BCMA CAR T cells [5]) | CD62L expression on anti-BCMA CAR T cells vs IL-2 alone (anti-BCMA CAR T cells [1]; [11]) | anti-BCMA CAR T cells co-expressing CD127, CD197 and CD38 vs IL-2 alone (anti-BCMA CAR T cells [6]) | CD8 expression vs IL-2 alone (anti-BCMA CAR T cells [7]) | IFN-γ released in 24 hours in media alone (tonic activity) (anti-BCMA CAR T cells [8]) | percentage of cells co-expressing CD127, CD197 and CD38 vs IL-2 alone (Venn diagrams) (anti-BCMA CAR T cells [9]; CD62L positive anti-BCMA T cells, ten days of culture) | anti-BCMA CAR T cells co-expressing CD127, CD197 and CD38 (anti-BCMA CAR T cells [9]; CyTOF, CD62L positive cells, ten days of culture) [%] | expression of CD127, CD197 and CD38 vs IL-2 alone (anti-BCMA CAR T cells [9]; CyTOF, anti-BCMA CAR T cells cultured with IL-2 and ZSTK474)
1 | Nc1nc(N)c2nc(-c3cccc(O)c3)cnc2n1 [TG100713] | significantly higher CD62L expression | – | – | – | – | – | – | – | – | – | – | – | – | –
2 | NC1(c2ccc(-c3nc4ccn5c(=O)[nH]nc5c4cc3-c3ccccc3)cc2)CCC1 [MK-2206] | significantly higher CD62L expression | significantly higher CAR expression | significantly increases CD62L expression; also recorded: significant higher levels of CD62L expression | not substantially different | no statistically significant differences in T cell division; also recorded: not substantially different | did not substantially decrease T cell division; also recorded: only slightly decreased | significantly more integrated copies | significantly higher CD62L expression | – | – | – | – | – | –
3 | FC(F)c1nc2ccccc2n1-c1nc(N2CCOCC2)nc(N2CCOCC2)n1 [ZSTK474] | significantly higher CD62L expression | – | – | – | – | – | – | increased CD62L expression; also recorded: significantly higher CD62L expression | significant increase; also recorded: increase in the percentage of cells co-expressing CD127, CD197 and CD38 | significantly higher CD8 expression; also recorded: increased percentage of CD8 expressing anti-BCMA CAR T cells | consistent with lacking tonic activity; also recorded: did not significantly increase | increase in the percentage of cells co-expressing CD127, CD197 and CD38 | 24.5 | increased expression
